Measured values taken from patent US20090291939A1, “Treating Alcohol And Or Substance Abuse By Antagonizing Alpha 2 Adrenergic Receptors With Weak Dopamine Blocking” (priority 2002, published 2009).
“Also recorded” adds a separate entry of the source.

Experiments:
[1] = test system: Syrian golden hamsters; assay: Free choice alcohol drinking in Syrian golden hamsters with daily s.c. drug treatment; settings: for body weight, change from baseline: 9-day treatment period; for alcohol consumption during post-hoc period: post-hoc: CLOZ animals 2 days lower dose then 22 days vehicle, HAL animals 0.6, 0.8, then 1 mg/kg over 15 days
[2] = test system: golden hamster; settings: cited from earlier work
[3] = test system: animals; settings: cited from earlier work

## CN1CCN(C2=Nc3cc(Cl)ccc3Nc3ccccc32)CC1 [CLOZ, clozapine]
[1]
  body weight, change from baseline: lost weight
[1]; first CLOZ injection 2 mg/kg s.c., treatment day #2
  time to onset of decrease in alcohol drinking after first injection: ≤ 27 h
[1]; treatment period, by day #6, after four days of 4 mg/kg/day CLOZ s.c.
  alcohol consumption, % of baseline: 10 % of baseline

## O=c1c(-c2ccc(O)cc2)coc2cc(O[C@@H]3O[C@H](CO)[C@@H](O)[C@H](O)[C@H]3O)ccc12 [Daidzin]
[2]
  alcohol drinking: decreases alcohol drinking

## O=C(CCCN1CCC(O)(c2ccc(Cl)cc2)CC1)c1ccc(F)cc1 [HAL, haloperidol]
[1]
  body weight, change from baseline: stayed the same
  alcohol consumption during post-hoc period: did not change; also recorded: no change in alcohol drinking
[1]; 9-day treatment: CLOZ 2 then 4 mg/kg, HAL 0.2 then 0.4 mg/kg, s.c. daily
  alcohol drinking, change during treatment period: unchanged
[1]; HAL dose ranging from 0.2 mg/kg to 1 mg/kg, including 11 days at highest dose
  alcohol use over full 24 days of treatment: no evidence of a decrease in alcohol use
[1]; listed as haloperidol
  alcohol consumption during post-hoc period: no decrease in drinking

## C=CCN1CC[C@]23c4c5ccc(O)c4O[C@H]2C(=O)CC[C@@]3(O)[C@H]1C5 [naloxone]
[3]
  alcohol consumption: inhibit alcohol consumption

## O=C1CC[C@@]2(O)[C@H]3Cc4ccc(O)c5c4[C@@]2(CCN3CC2CC2)[C@H]1O5 [naltrexone]
[3]
  alcohol consumption: inhibit alcohol consumption

## CN[C@H]1CC[C@@H](c2ccc(Cl)c(Cl)c2)c2ccccc21 [sertraline]
[3]
  alcohol consumption: inhibit alcohol consumption
